Reference: patent US20210255193A1, “LYSINE REACTIVE PROBES AND USES THEREOF” (The Scripps Research Institute, priority 2017, published 2021)
Blank lines part the entries; values can stand above or below the compound they belong to.

Experiments:
Test in all cases: competitive isoTOP-ABPP
Type in all cases: binding
[1] = target: T1, EEF2 Elongation factor 2 (Homo sapiens, UniProt P13639); settings: for isoTOP-ABPP ratio (R) at liganded lysine P13639_K235 / isoTOP-ABPP ratio (R) at liganded lysine P13639_K318: sol, 231
T1 construct: isoTOP-ABPP experiments performed in cell lysates (in vitro); endogenous in cells; host or cells: soluble proteome of human cancer cell lines (MDA-MB-231; Ramos and Jurkat also prepared)
In short: (§1)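 Competition format: fragment (50 μM activated ester, 100 μM guanidinylating agent) versus vehicle in lysate, then lysine probe STP-alkyne at 0.1 mM for 1 h. Quantitation by light/heavy TEV-tag MS1 peak areas, reported as R.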

[2] = target: T2, KPNA2 Importin subunit alpha-2 (Homo sapiens, UniProt P52292); settings: for isoTOP-ABPP ratio (R) at liganded lysine P52292_K459: sol, 231
T2 construct: isoTOP-ABPP experiments performed in cell lysates (in vitro); endogenous in cells; host or cells: soluble proteome of human cancer cell lines (MDA-MB-231, Ramos, Jurkat)
In short: as §1

[3] = target: T3, MTOR Serine/threonine-protein kinase mTOR (Homo sapiens, UniProt P42345); settings: for isoTOP-ABPP ratio (R) at liganded lysine P42345_K2066: sol, 231
T3 construct: isoTOP-ABPP experiments performed in cell lysates (in vitro); endogenous in cells; host or cells: soluble proteome of human cancer cell lines (MDA-MB-231; Ramos and Jurkat also prepared)
In short: as §1

[4] = target: T4, PFKL 6-phosphofructokinase, liver type (Homo sapiens, UniProt P17858); settings: for isoTOP-ABPP ratio, lysine P17858_K715: possible other lysine P17858_K714
T4 construct: isoTOP-ABPP experiments performed in cell lysates (in vitro); endogenous in cells; host or cells: soluble proteome of human cancer cell lines (MDA-MB-231; Ramos and Jurkat also prepared)
T4 sequence (P17858 1-780): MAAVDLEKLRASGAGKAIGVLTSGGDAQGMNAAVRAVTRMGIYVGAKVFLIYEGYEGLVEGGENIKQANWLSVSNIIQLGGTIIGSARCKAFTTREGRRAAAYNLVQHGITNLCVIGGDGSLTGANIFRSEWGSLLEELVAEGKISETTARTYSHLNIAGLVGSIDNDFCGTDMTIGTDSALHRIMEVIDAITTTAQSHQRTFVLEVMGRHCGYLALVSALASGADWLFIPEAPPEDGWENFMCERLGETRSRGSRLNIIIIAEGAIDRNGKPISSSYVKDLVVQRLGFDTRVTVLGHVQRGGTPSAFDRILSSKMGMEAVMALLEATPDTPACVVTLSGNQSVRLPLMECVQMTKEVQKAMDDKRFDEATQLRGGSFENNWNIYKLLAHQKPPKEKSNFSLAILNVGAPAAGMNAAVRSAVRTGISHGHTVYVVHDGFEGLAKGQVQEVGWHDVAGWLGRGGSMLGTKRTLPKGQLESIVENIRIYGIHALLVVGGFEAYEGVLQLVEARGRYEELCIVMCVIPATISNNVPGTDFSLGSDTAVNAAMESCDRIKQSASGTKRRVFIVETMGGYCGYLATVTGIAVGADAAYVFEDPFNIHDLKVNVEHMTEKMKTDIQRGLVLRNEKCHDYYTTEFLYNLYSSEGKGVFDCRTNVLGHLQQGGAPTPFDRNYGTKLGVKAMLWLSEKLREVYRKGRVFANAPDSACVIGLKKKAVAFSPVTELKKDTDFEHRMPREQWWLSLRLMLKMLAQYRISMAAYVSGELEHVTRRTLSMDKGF
In short: as §1

[5] = target: T5, RINT1 RAD50-interacting protein 1 (Homo sapiens, UniProt Q6NUQ1); settings: for isoTOP-ABPP ratio (R) at liganded lysine Q6NUQ1_K771: sol, 231
T5 construct: isoTOP-ABPP experiments performed in cell lysates (in vitro); endogenous in cells; host or cells: soluble proteome of human cancer cell lines (MDA-MB-231; Ramos and Jurkat also prepared)
T5 sequence (Q6NUQ1 whole entry): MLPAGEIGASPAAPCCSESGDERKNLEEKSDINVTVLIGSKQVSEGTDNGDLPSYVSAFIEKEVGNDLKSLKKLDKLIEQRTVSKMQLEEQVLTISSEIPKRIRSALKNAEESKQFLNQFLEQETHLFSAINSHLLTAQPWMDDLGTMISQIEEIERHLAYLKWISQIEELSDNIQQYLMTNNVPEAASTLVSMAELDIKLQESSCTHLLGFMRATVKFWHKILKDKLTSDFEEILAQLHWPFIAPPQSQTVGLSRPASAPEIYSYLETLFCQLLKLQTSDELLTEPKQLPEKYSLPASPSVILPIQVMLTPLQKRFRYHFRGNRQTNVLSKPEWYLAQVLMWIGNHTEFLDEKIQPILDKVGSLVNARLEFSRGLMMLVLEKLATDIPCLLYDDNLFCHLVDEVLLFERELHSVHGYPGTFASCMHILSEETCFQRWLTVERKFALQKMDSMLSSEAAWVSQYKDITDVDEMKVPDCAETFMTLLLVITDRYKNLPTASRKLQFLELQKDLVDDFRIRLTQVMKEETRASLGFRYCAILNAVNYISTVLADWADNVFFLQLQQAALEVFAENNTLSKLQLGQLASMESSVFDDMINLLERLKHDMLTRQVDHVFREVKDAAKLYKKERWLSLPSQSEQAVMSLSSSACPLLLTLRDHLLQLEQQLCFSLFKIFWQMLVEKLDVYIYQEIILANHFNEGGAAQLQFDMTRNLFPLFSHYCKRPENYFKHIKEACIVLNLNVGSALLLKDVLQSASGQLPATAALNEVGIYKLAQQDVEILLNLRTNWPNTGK
In short: as §1

[6] = target: T6, XRCC6 X-ray repair cross-complementing protein 6 (Homo sapiens, UniProt P12956); settings: for isoTOP-ABPP ratio (R) at liganded lysine P12956_K351: sol, 231
T6 construct: isoTOP-ABPP experiments performed in cell lysates (in vitro); endogenous in cells; host or cells: soluble proteome of human cancer cell lines (MDA-MB-231; Ramos and Jurkat also prepared)
T6 sequence (P12956 2-609 limits assumed): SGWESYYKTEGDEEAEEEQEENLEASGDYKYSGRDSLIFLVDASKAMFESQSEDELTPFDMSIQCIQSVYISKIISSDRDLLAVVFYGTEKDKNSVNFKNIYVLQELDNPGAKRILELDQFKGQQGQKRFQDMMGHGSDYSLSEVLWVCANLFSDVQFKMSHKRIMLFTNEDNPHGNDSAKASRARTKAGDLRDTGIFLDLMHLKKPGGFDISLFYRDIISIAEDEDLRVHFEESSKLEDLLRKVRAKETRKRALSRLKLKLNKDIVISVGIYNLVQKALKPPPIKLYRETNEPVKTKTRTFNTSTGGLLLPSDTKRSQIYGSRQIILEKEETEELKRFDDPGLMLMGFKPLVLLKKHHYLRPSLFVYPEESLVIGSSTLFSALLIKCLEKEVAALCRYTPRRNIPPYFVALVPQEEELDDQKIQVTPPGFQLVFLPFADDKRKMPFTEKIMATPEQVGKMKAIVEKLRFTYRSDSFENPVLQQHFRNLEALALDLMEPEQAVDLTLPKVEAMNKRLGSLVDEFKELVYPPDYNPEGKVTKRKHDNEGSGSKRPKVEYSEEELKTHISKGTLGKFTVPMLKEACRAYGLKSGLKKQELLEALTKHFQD
T6 sequence (P13010 2-732 partner limits assumed): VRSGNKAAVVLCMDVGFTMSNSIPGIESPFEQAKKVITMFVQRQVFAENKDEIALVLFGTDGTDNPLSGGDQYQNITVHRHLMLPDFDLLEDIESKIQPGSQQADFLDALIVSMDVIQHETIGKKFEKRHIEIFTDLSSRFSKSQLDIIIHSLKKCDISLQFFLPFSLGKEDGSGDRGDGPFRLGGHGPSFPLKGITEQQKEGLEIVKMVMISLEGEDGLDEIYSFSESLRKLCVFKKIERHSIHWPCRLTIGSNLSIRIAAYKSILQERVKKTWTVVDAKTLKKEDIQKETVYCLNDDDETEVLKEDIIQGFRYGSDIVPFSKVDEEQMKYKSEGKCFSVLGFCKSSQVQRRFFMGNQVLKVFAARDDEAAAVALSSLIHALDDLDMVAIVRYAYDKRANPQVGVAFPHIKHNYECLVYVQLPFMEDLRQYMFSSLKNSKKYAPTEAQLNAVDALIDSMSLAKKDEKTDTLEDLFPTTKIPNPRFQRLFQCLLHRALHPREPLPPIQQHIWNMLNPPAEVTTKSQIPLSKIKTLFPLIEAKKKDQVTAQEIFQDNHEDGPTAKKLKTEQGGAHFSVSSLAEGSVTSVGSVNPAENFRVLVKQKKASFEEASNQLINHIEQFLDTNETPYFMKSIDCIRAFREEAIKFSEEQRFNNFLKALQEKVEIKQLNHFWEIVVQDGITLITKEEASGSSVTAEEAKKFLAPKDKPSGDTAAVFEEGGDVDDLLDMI
In short: as §1

Structure (SMILES): Cn1cc(CC(=O)Oc2ccc([N+](=O)[O-])cc2[N+](=O)[O-])c2ccccc21 [fragment 32, 2,4-Dinitrophenyl 2-(1-methyl-1H-indol-3-yl)acetate]
isoTOP-ABPP reactivity ratio at lysine P13639_K235 ([1]; 50 uM, 231 sol, in vitro): 1.4 | isoTOP-ABPP reactivity ratio at lysine P13639_K318 ([1]; 50 uM, 231 sol, in vitro): 1.5 | isoTOP-ABPP reactivity ratio at lysine P52292_K459 ([2]; 50 uM, 231 sol, in vitro): 1.8 | isoTOP-ABPP reactivity ratio at lysine P42345_K2066 ([3]; 50 uM, 231 sol, in vitro): 8.0 | isoTOP-ABPP reactivity ratio at lysine P17858_K315 ([4]; 50 uM, 231 sol, in vitro): 20.0 | isoTOP-ABPP reactivity ratio at lysine P17858_K677 ([4]; 50 uM, 231 sol, in vitro): 11.9 | isoTOP-ABPP reactivity ratio at lysine P17858_K715 ([4]; 50 uM, 231 sol, in vitro): 7.7 | isoTOP-ABPP reactivity ratio at lysine Q6NUQ1_K771 ([5]; 50 uM, 231 sol, in vitro): 1.2 | isoTOP-ABPP reactivity ratio at lysine P12956_K351 ([6]; 50 uM, 231 sol, in vitro): 13.4

Structure (SMILES): O=C(CCc1ccc2c(c1)OCO2)Oc1ccc([N+](=O)[O-])cc1[N+](=O)[O-] [fragment 45, 2,4-Dinitrophenyl 3-(benzo[d][1,3]dioxol-5-yl)propanoate]
isoTOP-ABPP ratio, lysine P13639_K235 ([1]; 50 uM_231_sol_in vitro): 1.0 | isoTOP-ABPP ratio, lysine P13639_K318 ([1]; 50 uM_231_sol_in vitro): 1.0 | isoTOP-ABPP ratio, lysine P52292_K459 ([2]; 50 uM_231_sol_in vitro): 1.7 | isoTOP-ABPP ratio, lysine P42345_K2066 ([3]; 50 uM_231_sol_in vitro): 1.1 | isoTOP-ABPP ratio, lysine P17858_K315 ([4]; 50 uM_231_sol_in vitro): 1.8 | isoTOP-ABPP ratio, lysine P17858_K677 ([4]; 50 uM_231_sol_in vitro, possible other lysine P17858_K681): 2.9 | isoTOP-ABPP ratio, lysine P17858_K715 ([4]; 50 uM_231_sol_in vitro): 10.9 | isoTOP-ABPP ratio, lysine Q6NUQ1_K771 ([5]; 50 uM_231_sol_in vitro): 1.0 | isoTOP-ABPP ratio, lysine P12956_K351 ([6]; 50 uM_231_sol_in vitro): 1.9

Structure (SMILES): O=C(CCc1coc2cc(F)ccc2c1=O)Oc1ccc([N+](=O)[O-])cc1[N+](=O)[O-] [fragment 36, 2,4-Dinitrophenyl 3-(7-fluoro-4-oxo-4H-chromen-3-yl)propanoate]
isoTOP-ABPP ratio (R) at liganded lysine P13639_K235 ([1]; 50 uM, in vitro): 1.0 | isoTOP-ABPP ratio (R) at liganded lysine P13639_K318 ([1]; 50 uM, in vitro): 1.0 | isoTOP-ABPP ratio (R) at liganded lysine P52292_K459 ([2]; 50 uM, in vitro): 9.2 | isoTOP-ABPP ratio (R) at liganded lysine P42345_K2066 ([3]; 50 uM, in vitro): 3.0 | isoTOP-ABPP ratio (R) at liganded lysine P17858_K677 ([4]; 50 uM, in vitro, sol, 231): 20.0 | isoTOP-ABPP ratio (R) at liganded lysine P17858_K715 ([4]; 50 uM, in vitro, sol, 231): 20.0 | isoTOP-ABPP ratio (R) at liganded lysine Q6NUQ1_K771 ([5]; 50 uM, in vitro): 0.9 | isoTOP-ABPP ratio (R) at liganded lysine P12956_K351 ([6]; 50 uM, in vitro): 2.1

isoTOP-ABPP ratio, lysine P13639_K235 ([1]; 100 uM_231_sol_in vitro): 6.2 | isoTOP-ABPP ratio, lysine P13639_K318 ([1]; 100 uM_231_sol_in vitro): 2.0 | isoTOP-ABPP ratio, lysine P52292_K459 ([2]; 100 uM_231_sol_in vitro): 1.1 | isoTOP-ABPP ratio, lysine P42345_K2066 ([3]; 100 uM_231_sol_in vitro): 1.0 | isoTOP-ABPP ratio, lysine P17858_K715 ([4]; 100 uM_231_sol_in vitro): 1.8 | isoTOP-ABPP ratio, lysine Q6NUQ1_K771 ([5]; 100 uM_231_sol_in vitro): 1.1 | isoTOP-ABPP ratio, lysine P12956_K351 ([6]; 100 uM_231_sol_in vitro): 20.0
Structure (SMILES): COC(=O)NC(=NC(=O)OCC1c2ccccc2-c2ccccc21)n1cccn1 [fragment 49, N-Methoxycarbonyl-N′-9-fluorenylmethoxycarbonyl-pyrazole-1-carboxamidine]

Structure (SMILES): O=C(CC12CC3CC(CC(C3)C1)C2)Oc1ccc([N+](=O)[O-])cc1[N+](=O)[O-] [fragment 38, 2,4-Dinitrophenyl 2-(adamantan-1-yl)acetate]
isoTOP-ABPP ratio (R) at liganded lysine P13639_K235 ([1]; 50 uM, in vitro): 0.9 | isoTOP-ABPP ratio (R) at liganded lysine P13639_K318 ([1]; 50 uM, in vitro): 0.9 | isoTOP-ABPP ratio (R) at liganded lysine P52292_K459 ([2]; 50 uM, in vitro): 20.0 | isoTOP-ABPP ratio (R) at liganded lysine P42345_K2066 ([3]; 50 uM, in vitro): 1.1 | isoTOP-ABPP ratio (R) at liganded lysine P17858_K315 ([4]; 50 uM, in vitro, sol, 231): 0.4 | isoTOP-ABPP ratio (R) at liganded lysine P17858_K677 ([4]; 50 uM, in vitro, sol, 231): 1.3 | isoTOP-ABPP ratio (R) at liganded lysine P17858_K715 ([4]; 50 uM, in vitro, sol, 231): 20.0 | isoTOP-ABPP ratio (R) at liganded lysine Q6NUQ1_K771 ([5]; 50 uM, in vitro): 1.2 | isoTOP-ABPP ratio (R) at liganded lysine P12956_K351 ([6]; 50 uM, in vitro): 3.3

R value (DMSO/fragment) for probe 1 labeling ([1]; P13639_K235, 50 uM, 231 sol, in vitro): 1.6 | R value (DMSO/fragment) for probe 1 labeling ([1]; P13639_K318, 50 uM, 231 sol, in vitro): 1.6 | R value (DMSO/fragment) for probe 1 labeling ([2]; P52292_K459, 50 uM, 231 sol, in vitro): 1.9 | R value (DMSO/fragment) for probe 1 labeling ([3]; P42345_K2066, 50 uM, 231 sol, in vitro): 1.1 | R value (DMSO/fragment) for probe 1 labeling ([4]; P17858_K677, 50 uM, 231 sol, in vitro): 1.8 | R value (DMSO/fragment) for probe 1 labeling ([4]; P17858_K715, 50 uM, 231 sol, in vitro): 0.6 | R value (DMSO/fragment) for probe 1 labeling ([5]; Q6NUQ1_K771, 50 uM, 231 sol, in vitro): 1.1 | R value (DMSO/fragment) for probe 1 labeling ([6]; P12956_K351, 50 uM, 231 sol, in vitro): 1.2
Structure (SMILES): COc1cc(CCC(=O)Oc2c(F)c(F)c(F)c(F)c2F)cc(OC)c1OC [fragment 23, Pentafluorophenyl 3-(3,4,5-trimethoxyphenyl)propanoate]
